Measured values: US4784944A, “Prothrombin time determining reagent and methods of using and preparing the same” (Behringwerke Aktiengesellschaft, priority 1984, dated 1988)
Values belong to the compound of their own block, whether it stands above or below them. Starred links: 1 amine or outer side, 2 acyl side, 3 side chain; linkers in the order of their positions; H or OH if unused. Non-standard residues stand in square brackets, D forms with d. Residues, ends and D or L forms follow the SMILES beside them. *: point of attachment. Benzoyl(5-NH,2-NO2) = O=C(c1cc(N[*:1])ccc1[N+](=O)[O-])[*:2]; pNA = O=[N+]([O-])c1ccc(N*)cc1; Tos = Cc1ccc(S(=O)(=O)*)cc1

Columns and labels:
Format in all cases: biochemical
Thromboplastin A = test: Hydrolysis of chromogenic substrates by thromboplastin A; settings: Thromboplastin A 5%; substrate 50 μmol/l; after 92 hours at room temperature; 405 nm
Description: (§1) Difference in extinction after 92 hours at room temperature of a reagent prepared according to Example 1. The substrate concentration was 50 μmol/l, and the thromboplastins were dissolved in accordance with the statements of the manufacturer and added at a concentration of 5%.
(§2) 4 to 20 ml of human thromboplastin were added to 70 ml of an aqueous solution containing 5.844 g of NaCl, 1.47 g of CaCl2, 11.92 g of HEPES, 250 μg of polybrene® and 67.1 mg of H-D-Phe-Pro-Arg-ANBA-isopropylamide HCl in one liter, pH 7.6, and the mixture was freeze-dried.

Thromboplastin B = test: Hydrolysis of chromogenic substrates by thromboplastin B; settings: Thromboplastin B 5%; substrate 50 μmol/l; after 92 hours at room temperature; 405 nm
Description: as §1, §2

Thromboplastin C = test: Hydrolysis of chromogenic substrates by thromboplastin C; settings: Thromboplastin C 5%; substrate 50 μmol/l; after 92 hours at room temperature; 405 nm
Description: as §1, §2

Thromboplastin D = test: Hydrolysis of chromogenic substrates by thromboplastin D; settings: Thromboplastin D 5%; substrate 50 μmol/l; after 92 hours at room temperature; 405 nm
Description: as §1, §2

Thromboplastin E = test: Hydrolysis of chromogenic substrates by thromboplastin E; settings: Thromboplastin E 5%; substrate 50 μmol/l; after 92 hours at room temperature; 405 nm
Description: as §1, §2

Thromboplastin F = test: Hydrolysis of chromogenic substrates by thromboplastin F; settings: Thromboplastin F 5%; substrate 50 μmol/l; after 92 hours at room temperature; 405 nm
Description: as §1, §2

Thromboplastin G = test: Hydrolysis of chromogenic substrates by thromboplastin G; settings: Thromboplastin G 5%; substrate 50 μmol/l; after 92 hours at room temperature; 405 nm
Description: as §1, §2

[1] = tested on: thromboplastins of the state of the art; test: Hydrolysis of chromogenic substrates by thromboplastins; settings: for Stability of a reagent containing the substrate (in words): reagent with thromboplastin having proteolytic activity
Description: The substrate concentration was 50 μmol/l, and the thromboplastins were dissolved in accordance with the statements of the manufacturer and added at a concentration of 5%.

Compound: CC(C)(C)CNC(=O)c1cc(NC(=O)[C@H](CCCNC(=N)N)NC(=O)[C@@H]2CCCN2C(=O)[C@H](N)Cc2ccccc2)ccc1[N+](=O)[O-] [D-Phe-Pro-Arg-ANBA-neopentylamide]
Difference in extinction (hydrolysis of chromogenic substrate) (Thromboplastin A): 0,003
Difference in extinction (hydrolysis of chromogenic substrate) (Thromboplastin B): 0,009
Difference in extinction (hydrolysis of chromogenic substrate) (Thromboplastin C): 0,011
Difference in extinction (hydrolysis of chromogenic substrate) (Thromboplastin D): 0,007
Difference in extinction (hydrolysis of chromogenic substrate) (Thromboplastin E): 0,014
Difference in extinction (hydrolysis of chromogenic substrate) (Thromboplastin F): 0,003
Difference in extinction (hydrolysis of chromogenic substrate) (Thromboplastin G): 0,002

Compound: C[C@H](NC(=O)CCC(=O)O)C(=O)N[C@@H](C)C(=O)N[C@@H](C)C(=O)Nc1ccc([N+](=O)[O-])cc1 [Suc-(Ala)3-pNA, reference compound]
Difference in extinction (hydrolysis of chromogenic substrate) (Thromboplastin A): 0,211
Difference in extinction (hydrolysis of chromogenic substrate) (Thromboplastin B): 0,324
Difference in extinction (hydrolysis of chromogenic substrate) (Thromboplastin C): 0,248
Difference in extinction (hydrolysis of chromogenic substrate) (Thromboplastin D): 0,411
Difference in extinction (hydrolysis of chromogenic substrate) (Thromboplastin E): 0,178
Difference in extinction (hydrolysis of chromogenic substrate) (Thromboplastin F): 0,310
Difference in extinction (hydrolysis of chromogenic substrate) (Thromboplastin G): 0,202

Compound: Cc1ccc(S(=O)(=O)NCC(=O)N2CCC[C@H]2C(=O)N[C@@H](CCCNC(=N)N)C(=O)Nc2ccc([N+](=O)[O-])cc2)cc1 [Tos-Gly-Pro-Arg-pNA, reference compound] (Tos-Gly-Pro-Arg-pNA)
Difference in extinction (hydrolysis of chromogenic substrate) (Thromboplastin A): 0,190
Difference in extinction (hydrolysis of chromogenic substrate) (Thromboplastin B): 0,143
Difference in extinction (hydrolysis of chromogenic substrate) (Thromboplastin C): 0,115
Difference in extinction (hydrolysis of chromogenic substrate) (Thromboplastin D): 0,137
Difference in extinction (hydrolysis of chromogenic substrate) (Thromboplastin E): 0,123
Difference in extinction (hydrolysis of chromogenic substrate) (Thromboplastin F): 0,116
Difference in extinction (hydrolysis of chromogenic substrate) (Thromboplastin G): 0,149
Extent of hydrolysis by the thromboplastins (in words) ([1]; extinction at 405 nm, Table 1): rapid consumption of the substrate
Stability of a reagent containing the substrate (in words) [1]: stable for only a very short time

Stability of a reagent containing the substrate (in words) [1]: stable for a considerably longer time
Compound: CC(C)NC(=O)c1cc(NC(=O)[C@H](CCCNC(=N)N)NC(=O)[C@@H]2CCCN2C(=O)[C@H](N)Cc2ccccc2)ccc1[N+](=O)[O-] [D-Phe-Pro-Arg-ANBA-isopropylamide, H-D-Phe-Pro-Arg-ANBA-isopropylamide]
Difference in extinction (hydrolysis of chromogenic substrate) (Thromboplastin A): 0,006
Difference in extinction (hydrolysis of chromogenic substrate) (Thromboplastin B): 0,016
Difference in extinction (hydrolysis of chromogenic substrate) (Thromboplastin C): 0,010
Difference in extinction (hydrolysis of chromogenic substrate) (Thromboplastin D): 0,013
Difference in extinction (hydrolysis of chromogenic substrate) (Thromboplastin E): 0,011
Difference in extinction (hydrolysis of chromogenic substrate) (Thromboplastin F): 0
Difference in extinction (hydrolysis of chromogenic substrate) (Thromboplastin G): 0

Compound: D-Phe-Pro-Arg-ANBA-Valine methyl ester
Difference in extinction (hydrolysis of chromogenic substrate) (Thromboplastin A): 0,003
Difference in extinction (hydrolysis of chromogenic substrate) (Thromboplastin B): 0,031
Difference in extinction (hydrolysis of chromogenic substrate) (Thromboplastin C): 0,008
Difference in extinction (hydrolysis of chromogenic substrate) (Thromboplastin D): 0,020
Difference in extinction (hydrolysis of chromogenic substrate) (Thromboplastin E): 0
Difference in extinction (hydrolysis of chromogenic substrate) (Thromboplastin F): 0
Difference in extinction (hydrolysis of chromogenic substrate) (Thromboplastin G): 0,002

Compound: CC(C)C[C@H](N)C(=O)Nc1ccc([N+](=O)[O-])cc1 [Leu-pNA, reference compound]
Difference in extinction (hydrolysis of chromogenic substrate) (Thromboplastin A): 0,974
Difference in extinction (hydrolysis of chromogenic substrate) (Thromboplastin B): 0,681
Difference in extinction (hydrolysis of chromogenic substrate) (Thromboplastin C): 0,721
Difference in extinction (hydrolysis of chromogenic substrate) (Thromboplastin D): 0,593
Difference in extinction (hydrolysis of chromogenic substrate) (Thromboplastin E): 0,871
Difference in extinction (hydrolysis of chromogenic substrate) (Thromboplastin F): 0,536
Difference in extinction (hydrolysis of chromogenic substrate) (Thromboplastin G): 1,124

Compound: CCCCNC(=O)c1cc(NC(=O)[C@H](CCCNC(=N)N)NC(=O)[C@@H]2CCCN2C(=O)[C@H](N)Cc2ccccc2)ccc1[N+](=O)[O-] [D-Phe-Pro-Arg-ANBA-n-Butylamide]
Difference in extinction (hydrolysis of chromogenic substrate) (Thromboplastin A): 0,021
Difference in extinction (hydrolysis of chromogenic substrate) (Thromboplastin B): 0,023
Difference in extinction (hydrolysis of chromogenic substrate) (Thromboplastin C): 0,019
Difference in extinction (hydrolysis of chromogenic substrate) (Thromboplastin D): 0,013
Difference in extinction (hydrolysis of chromogenic substrate) (Thromboplastin E): 0,030
Difference in extinction (hydrolysis of chromogenic substrate) (Thromboplastin F): 0,023
Difference in extinction (hydrolysis of chromogenic substrate) (Thromboplastin G): 0,012

Compound: NCCCC[C@H](NC(=O)c1ccccc1)C(=O)Nc1ccc([N+](=O)[O-])cc1 [N-α-Benzoyl-L-Lysine-pNA, reference compound]
Difference in extinction (hydrolysis of chromogenic substrate) (Thromboplastin A): 0,319
Difference in extinction (hydrolysis of chromogenic substrate) (Thromboplastin B): 0,525
Difference in extinction (hydrolysis of chromogenic substrate) (Thromboplastin C): 0,433
Difference in extinction (hydrolysis of chromogenic substrate) (Thromboplastin D): 0,402
Difference in extinction (hydrolysis of chromogenic substrate) (Thromboplastin E): 0,372
Difference in extinction (hydrolysis of chromogenic substrate) (Thromboplastin F): 0,198
Difference in extinction (hydrolysis of chromogenic substrate) (Thromboplastin G): 0,503

Compound: Cc1ccc(S(=O)(=O)NCC(=O)N2CCC[C@H]2C(=O)N[C@@H](CCCNC(=N)N)C(=O)Nc2ccc([N+](=O)[O-])c(C(=O)NC(C)C)c2)cc1 [Tos-Gly-Pro-Arg-ANBA-isopropylamide]
Difference in extinction (hydrolysis of chromogenic substrate) (Thromboplastin A): 0,035
Difference in extinction (hydrolysis of chromogenic substrate) (Thromboplastin B): 0,039
Difference in extinction (hydrolysis of chromogenic substrate) (Thromboplastin C): 0,030
Difference in extinction (hydrolysis of chromogenic substrate) (Thromboplastin D): 0,023
Difference in extinction (hydrolysis of chromogenic substrate) (Thromboplastin E): 0,041
Difference in extinction (hydrolysis of chromogenic substrate) (Thromboplastin F): 0,029
Difference in extinction (hydrolysis of chromogenic substrate) (Thromboplastin G): 0,018

Compound: CCOC(=O)CNC(=O)c1cc(NC(=O)[C@H](CCCNC(=N)N)NC(=O)[C@@H]2CCCN2C(=O)CNS(=O)(=O)c2ccc(C)cc2)ccc1[N+](=O)[O-] [Tos-Gly-Pro-Arg-ANBA-Glycine ethyl ester] (Tos-GPR[Benzoyl(5-NH,2-NO2)]G-OEt)
Difference in extinction (hydrolysis of chromogenic substrate) (Thromboplastin A): 0,029
Difference in extinction (hydrolysis of chromogenic substrate) (Thromboplastin B): 0,034
Difference in extinction (hydrolysis of chromogenic substrate) (Thromboplastin C): 0,028
Difference in extinction (hydrolysis of chromogenic substrate) (Thromboplastin D): 0,026
Difference in extinction (hydrolysis of chromogenic substrate) (Thromboplastin E): 0,037
Difference in extinction (hydrolysis of chromogenic substrate) (Thromboplastin F): 0,023
Difference in extinction (hydrolysis of chromogenic substrate) (Thromboplastin G): 0,029

Compound: CCOC(=O)CNC(=O)c1cc(NC(=O)[C@H](CCCNC(=N)N)NC(=O)[C@@H]2CCCN2C(=O)[C@H](N)Cc2ccccc2)ccc1[N+](=O)[O-] [D-Phe-Pro-Arg-ANBA-Glycine ethyl ester] (H-[dF]PR[Benzoyl(5-NH,2-NO2)]G-OEt)
Difference in extinction (hydrolysis of chromogenic substrate) (Thromboplastin A): 0,007
Difference in extinction (hydrolysis of chromogenic substrate) (Thromboplastin B): 0,009
Difference in extinction (hydrolysis of chromogenic substrate) (Thromboplastin C): 0,015
Difference in extinction (hydrolysis of chromogenic substrate) (Thromboplastin D): 0,019
Difference in extinction (hydrolysis of chromogenic substrate) (Thromboplastin E): 0,008
Difference in extinction (hydrolysis of chromogenic substrate) (Thromboplastin F): 0,011
Difference in extinction (hydrolysis of chromogenic substrate) (Thromboplastin G): 0,003
